From PubChem BioAssay (NCI)
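A five-concentration, 48-hour dose response in 96-well plates underlies each endpoint, interpolated linearly between surrounding concentrations. Here, GI50 denotes the concentration required for 50% inhibition of growth. TGI is the concentration that stops growth completely.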

Assays:
Experiment in all cases: NCI-60 cell line screen, 48 h
MALME-3M melanoma = tested on: MALME-3M melanoma
CAKI-1 renal = tested on: CAKI-1 renal
SK-MEL-5 melanoma = tested on: SK-MEL-5 melanoma
OVCAR-8 ovarian = tested on: OVCAR-8 ovarian
SN12C renal = tested on: SN12C renal
HCT-15 colon = tested on: HCT-15 colon
BT-549 breast = tested on: BT-549 breast
A498 renal = tested on: A498 renal
NCI/ADR-RES ovarian = tested on: NCI/ADR-RES ovarian
SF-539 CNS = tested on: SF-539 CNS

Compound	GI50 (MALME-3M melanoma) [µM]	TGI (MALME-3M melanoma) [µM]	GI50 (CAKI-1 renal) [µM]	TGI (CAKI-1 renal) [µM]	GI50 (SK-MEL-5 melanoma) [µM]	TGI (SK-MEL-5 melanoma) [µM]	GI50 (OVCAR-8 ovarian) [µM]	TGI (OVCAR-8 ovarian) [µM]	GI50 (SN12C renal) [µM]	TGI (SN12C renal) [µM]	GI50 (HCT-15 colon) [µM]	TGI (HCT-15 colon) [µM]	GI50 (BT-549 breast) [µM]	TGI (BT-549 breast) [µM]	GI50 (A498 renal) [µM]	TGI (A498 renal) [µM]	GI50 (NCI/ADR-RES ovarian) [µM]	TGI (NCI/ADR-RES ovarian) [µM]	GI50 (SF-539 CNS) [µM]	TGI (SF-539 CNS) [µM]
O[C@@H]1CCCCN1Cc1cc2cc3c(cc2c2cc(OCc4ccccc4)ccc12)OCO3	1.66	3.37	1.57	2.91	1.62	3.09	1.19	3.03	1.42	2.77	1.81	4.37	1.73	3.31	1.41	2.75	1.5	3.47	1.55	2.96
O=C1C(CN2CCCC2)CCC1CN1CCCC1 (stereo not given)	–	29	–	24.6	–	31.9	–	37.5	–	> 53	–	31.8	–	31.8	–	> 100	–	56.8	–	35.3
COc1ccccc1Nc1nc(N)nc(N)c1N	–	> 100	–	> 100	–	> 100	–	> 100	–	32.7	–	> 100	–	> 100	–	> 100	–	> 100	–	> 100
C[C@H]1CC(=O)C[C@@H]2CC[C@@H]3[C@H](CC[C@]4(C)C(OC(=O)c5cccc6c(=O)c7ccccc7[nH]c56)CC[C@@H]34)[C@]21C (stereo not given in full)	–	> 100	–	86	–	40.3	–	75.9	–	> 100	–	> 100	–	> 100	–	> 100	–	61	–	> 100
CC(=O)C1=C(C)N2C(=NC3=C(CCc4ccccc43)C2c2ccc(Cl)cc2)S1 (stereo not given)	–	> 100	–	> 100	–	> 100	–	> 100	–	> 100	–	> 100	–	> 100	–	51	–	> 100	–	> 100
CCOP(=O)(OCC)/C(F)=C/c1ccc(F)cc1	–	> 100	–	> 100	–	> 100	–	> 100	–	> 100	–	> 100	–	> 100	–	> 100	–	> 100	–	> 100
Nc1nc(NCc2ccccc2)cc(NCc2ccccc2)n1	–	21.7	–	9.74	–	19.7	–	17.3	–	32.4	–	18.3	–	23.5	–	14.5	–	15.3	–	18.3
CC(C)CCNC(=O)c1ccc(CNC(=O)/C=C/c2ccc3c(c2)-c2ccccc2C3)cc1	–	45.8	–	78.9	–	> 100	–	71.4	–	> 100	–	> 100	–	> 100	–	> 100	–	> 100	–	> 100
CCOC(=O)c1sc(N)nc1N1CCCC1	–	> 100	–	> 100	–	> 100	–	> 100	–	> 100	–	> 100	–	> 100	–	> 100	–	> 100	–	> 100
CN1CN(c2ccccc2)C2(CCN(CCCN(C)c3ccc(F)cc3)CC2)C1=O	–	38.1	–	86.4	–	29.8	–	45.2	–	66.4	–	50.1	–	31.1	–	72.6	–	51.3	–	39.7
COc1cc(Nc2nc(NS(=O)(=O)c3cc(C)c(Cl)cc3S)n[nH]2)cc(OC)c1OC	–	> 100	–	> 100	–	> 100	–	> 100	–	> 100	–	> 100	–	> 100	–	> 100	–	> 100	–	> 100
C=C1C(=O)O[C@H]2[C@@H]3O[C@@](C)(CC/C=C(\C)CCC[C@@H]2C)[C@H](O)C[C@@H]13	–	53.3	–	4.53	–	6.36	–	17.1	–	8.15	–	24.4	–	8.1	–	> 100	–	7.62	–	5.6
